system: ornithine decarboxylase (ODC); experiment: ODC assay: inhibition of TPA induction of ornithine decarboxylase (ODC) activity; format: biochemical; conditions: 60% inhibition in the ODC assay (TPA induction)
Excerpt: A classic measure of retinoic acid activity involves measuring the effects of retinoic acid on ornithine decarboxylase. The original work on the correlation between retinoic acid and decrease in cell proliferation was done by Verma & Boutwell, Cancer Research, 1977, 37,2196-2201. That reference discloses that ornithine decarboxylase (ODC) activity increased precedent to polyamine biosynthesis. It has been established elsewhere that increases in polyamine synthesis can be correlated or associated with cellular proliferation. Thus, if ODC activity could be inhibited, cell hyperproliferation could be modulated. Although all cases for ODC activity increases are unknown, it is known that 12-0-tetradecanoylphorbol-13-acetate (TPA) induces ODC activity. Retinoic acid inhibits this induction of ODC activity by TPA. […] Activity of exemplary compounds of the present invention in the above-described ODC assay is disclosed in Table 1 which provides the IC60 concentration for the respective exemplary compound. ("IC60 " is that concentration of the test compound which causes 60% inhibition in the ODC assay. By analogy, "IC80, for example, is that concentration of the test compound which causes 80% inhibition in the ODC assay.)

Row | SMILES | IC60 [nmols]
1 | CCOC(=O)c1ccc(/N=N/c2ccc3c(c2)C(OCOC)CCC3(C)C)cc1 (racemic) [Compound D6, (+/-) ethyl 4-[(5,5-dimethyl-8-(methoxymethyloxy)-5,6,7,8-tetrahydronaphthalen-2-yl)azo]benzoate] | 1.9
2 | CCO/N=C1\CCC(C)(C)c2ccc(/C=C/c3ccc(C(=O)OCC)cc3)cc21 [Compound A5, ethyl (E)-4-[2-(5,5-dimethyl-5,6-dihydro-8(7H)-anti-(O-ethyl oxime)-naphthalen-2-yl)ethenyl]-benzoate] | 10.3
3 | CCOC(=O)c1ccc(/C=C/c2ccc3c(c2)C2(CCC3(C)C)SCCCS2)cc1 [Compound A23] | 43.7
4 | CCO/N=C1\CCC(C)(C)c2ccc(/C(C)=C/C=C/C(C)=C/C(=O)OCC)cc21 [Compound C22b, Ethyl 7-[4,4-dimethyl-3,4-dihydro-1(2H)-anti-(O-ethyl oxime)-naphth-7-yl]3,7-dimethyl-hepta-2(E),4(E),6(E)-trienoate] | 10

same assay, conditions: 80% inhibition in the ODC assay (TPA induction); printed in the IC60 column marked (IC80)

Row | SMILES | IC80 [nmols]
5 | CCOC(=O)c1ccc(/C=C/c2ccc3c(c2)C(Sc2ccccc2)=CCC3(C)C)cc1 [Compound A16, ethyl (E)-4-[2-(5,6-dihydro-5,5-dimethyl-8-(phenylthio)-naphthalen-2-yl)ethenyl]benzoate] | 4.3
6 | CC1(C)CC=C(c2cccs2)c2ccc(C(=O)/C=C/c3ccc(C(=O)O)cc3)cc21 [Compound D34, 4-[3-oxo-3-(7,8-dihydro-5-(2-thienyl)-8.8-dimethyl-2-naphthalenyl) - 1-propenyl]-benzoic acid] | 4.3

Reference: patent US5808124A, “O- or S-substituted dihydronaphthalene derivatives having retinoid and/or retinoid antagonist-like biological activity” (Allergan, priority 1996, dated 1998)
